Source: US12577255B2, “MDM2-based modulators of proteolysis and associated methods of use” (Arvinas Operations, Inc., priority 2015, dated 2026)

Columns and labels:
[1] = target: T1, bromodomain-containing protein 4 (BRD4) (Homo sapiens, UniProt O60885); experiment: BRD4 Western blot (degradation); format: cell-based; details: at 1 μM; VCaP cells, 16 h
T1 construct: VCaP cells were chased from ATCC and cultured in Dulbecco's Modified Eagle's Medium; host or cells: VCaP
Description: (§1) The following biological assays were performed to evaluate the protein degradation in various cell types using representative compounds disclosed. The degradation of the following proteins were evaluated: bromodomain-containing protein 4 (BRD4), androgen receptor (AR), c-Myc, c-Jun N-terminal kinases (JNK), and enhancer of zeste homolog 2 (EZH2).
VCaP cells were chased from ATCC and cultured in Dulbecco's Modified Eagle's Medium (ATCC), supplemented with 10% FBS (ATCC) and Penicillin/Streptomycin (Life Technologies). DMSO control and compound treatments (0.03 μM to 1 μM) were performed in 12-well plates for 16 h. cells were harvested, and lysed in RIPA buffer (50 mM Tris pH8, 150 mM NaCl, 1% Tx-100, 0.1% SDS, 0.5% sodium deoxycholate) supplemented with protease and phosphatase inhibitors. Lysates were clarified at 16,000 g for 10 minutes, and protein concentration was determined. Equal amount of protein (20 μg) was subjected to SDS-PAGE analysis and followed by immunoblotting according to standard protocols. The antibodies used were BRD4 (Cell signaling #13440), and Actin (Sigma #5441). Detection reagents were Clarity Western ELC substrate (Bio-rad #170-5060).

[2] = tested on: p53; experiment: Western blot of HCT116 cells, p53 level; format: cell-based, human; details: Western blot (FIG. 2, FIG. 3)
[3] = target: T2, MDM2 (Homo sapiens, UniProt Q00987); experiment: Western blot of HCT116 cells, MDM2 level; format: cell-based; details: Western blot (FIG. 2, FIG. 3)
T2 construct: Western blot of HCT116 cells treated with chimeric molecules; endogenous in cells; host or cells: HCT116

[4] = tested on: c-Jun N-terminal kinases (JNK); experiment: JNK Western blot assay (degradation); format: cell-based; details: at 1 μM; 16 h
Description: as §1
(§2) Cells were purchased from ATCC and cultured in Dulbecco's Modified Eagle's Medium (ATCC), supplemented with 10% FBS (ATCC) and Penicillin/Streptomycin (Life Technologies). […] Cells were harvested, and lysed in RIPA buffer (50 mM Tris pH8, 150 mM NaCl, 1% Tx-100, 0.1% SDS, 0.5% sodium deoxycholate) supplemented with protease and phosphatase inhibitors. Lysates were clarified at 16,000 g for 10 minutes, and protein concentration was determined. Equal amount of protein (20 μg) was subjected to SDS-PAGE analysis and followed by immunoblotting according to standard protocols.

[5] = target: enhancer of zeste homolog 2 (EZH2) (Homo sapiens, UniProt Q15910); experiment: EZH2 Western blot assay (degradation); format: cell-based; details: at 1 μM; 16 h
Description: as §1, §2

T2 sequence (Q00987 whole entry): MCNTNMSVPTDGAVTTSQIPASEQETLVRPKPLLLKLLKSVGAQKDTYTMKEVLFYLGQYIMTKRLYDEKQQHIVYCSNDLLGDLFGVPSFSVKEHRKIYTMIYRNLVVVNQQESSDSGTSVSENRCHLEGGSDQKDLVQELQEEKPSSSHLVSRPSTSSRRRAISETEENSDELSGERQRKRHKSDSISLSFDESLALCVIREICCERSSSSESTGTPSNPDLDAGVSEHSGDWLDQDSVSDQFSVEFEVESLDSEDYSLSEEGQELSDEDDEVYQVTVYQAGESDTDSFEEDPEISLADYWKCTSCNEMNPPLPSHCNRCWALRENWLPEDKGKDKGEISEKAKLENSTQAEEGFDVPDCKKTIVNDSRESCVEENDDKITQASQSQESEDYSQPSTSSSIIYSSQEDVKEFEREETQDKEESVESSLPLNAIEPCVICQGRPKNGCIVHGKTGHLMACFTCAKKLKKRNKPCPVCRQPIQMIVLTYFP
Chain of enhancer of zeste homolog 2 (EZH2) (Q15910 whole entry): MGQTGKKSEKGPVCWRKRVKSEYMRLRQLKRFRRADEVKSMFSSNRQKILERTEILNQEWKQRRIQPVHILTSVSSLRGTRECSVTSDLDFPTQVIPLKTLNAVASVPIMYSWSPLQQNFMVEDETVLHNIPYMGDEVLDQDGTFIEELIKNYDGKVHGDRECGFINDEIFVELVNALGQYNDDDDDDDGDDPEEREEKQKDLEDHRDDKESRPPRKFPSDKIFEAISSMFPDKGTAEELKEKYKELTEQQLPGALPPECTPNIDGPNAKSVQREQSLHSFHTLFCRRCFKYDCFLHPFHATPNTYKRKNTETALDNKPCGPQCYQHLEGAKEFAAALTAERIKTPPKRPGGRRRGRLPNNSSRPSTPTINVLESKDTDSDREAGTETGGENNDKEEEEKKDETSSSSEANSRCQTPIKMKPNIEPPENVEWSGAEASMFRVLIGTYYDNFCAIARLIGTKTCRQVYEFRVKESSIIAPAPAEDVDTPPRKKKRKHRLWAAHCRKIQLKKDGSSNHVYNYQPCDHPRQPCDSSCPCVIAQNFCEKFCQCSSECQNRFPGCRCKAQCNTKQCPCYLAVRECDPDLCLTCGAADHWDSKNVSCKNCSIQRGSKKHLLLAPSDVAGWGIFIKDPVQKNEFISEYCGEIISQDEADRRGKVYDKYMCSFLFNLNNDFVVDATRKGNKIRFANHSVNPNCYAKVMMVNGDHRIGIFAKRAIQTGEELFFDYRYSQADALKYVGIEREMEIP
Chain of enhancer of zeste homolog 2 (EZH2) (O75530 whole entry partner): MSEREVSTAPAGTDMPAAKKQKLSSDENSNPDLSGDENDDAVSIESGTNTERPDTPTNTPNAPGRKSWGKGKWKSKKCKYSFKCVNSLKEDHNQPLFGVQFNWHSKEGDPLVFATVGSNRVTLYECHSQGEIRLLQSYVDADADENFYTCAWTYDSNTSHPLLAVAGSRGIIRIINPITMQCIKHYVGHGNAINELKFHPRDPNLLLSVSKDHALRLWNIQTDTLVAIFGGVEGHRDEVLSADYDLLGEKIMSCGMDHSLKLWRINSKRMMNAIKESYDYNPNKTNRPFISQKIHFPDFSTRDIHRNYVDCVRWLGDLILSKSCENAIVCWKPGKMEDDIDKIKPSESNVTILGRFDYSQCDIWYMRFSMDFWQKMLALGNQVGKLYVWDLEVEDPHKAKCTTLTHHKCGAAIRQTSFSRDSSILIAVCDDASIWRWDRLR
Chain of enhancer of zeste homolog 2 (EZH2) (Q15022 whole entry partner): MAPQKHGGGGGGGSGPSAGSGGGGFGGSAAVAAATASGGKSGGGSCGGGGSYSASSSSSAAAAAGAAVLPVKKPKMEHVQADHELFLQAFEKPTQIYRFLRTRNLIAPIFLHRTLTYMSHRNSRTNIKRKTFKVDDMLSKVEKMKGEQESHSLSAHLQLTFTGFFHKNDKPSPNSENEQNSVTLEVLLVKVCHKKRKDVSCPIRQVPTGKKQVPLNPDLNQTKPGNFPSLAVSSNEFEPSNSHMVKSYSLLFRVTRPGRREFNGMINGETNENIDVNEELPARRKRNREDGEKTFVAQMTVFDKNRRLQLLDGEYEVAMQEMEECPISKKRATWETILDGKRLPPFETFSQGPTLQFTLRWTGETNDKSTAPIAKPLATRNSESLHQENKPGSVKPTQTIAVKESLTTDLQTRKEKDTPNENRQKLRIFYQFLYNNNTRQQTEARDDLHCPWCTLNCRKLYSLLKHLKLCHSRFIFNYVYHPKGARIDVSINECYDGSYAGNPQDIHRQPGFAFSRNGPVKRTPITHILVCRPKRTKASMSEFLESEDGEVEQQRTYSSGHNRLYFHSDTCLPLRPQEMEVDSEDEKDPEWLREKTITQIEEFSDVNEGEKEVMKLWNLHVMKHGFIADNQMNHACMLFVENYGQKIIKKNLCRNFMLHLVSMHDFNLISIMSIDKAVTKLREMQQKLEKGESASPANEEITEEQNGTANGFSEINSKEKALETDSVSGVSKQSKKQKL

Degradation activity BRD4 [1]	MDM2 up-regulation [3]	Degradation activity EZH2 [5]	Compound	p53 level increase [2]	Degradation activity JNK [4]
A (0 to 25% degradation at 1 μM)	no MDM2 up-regulation	–	COc1cc(C(=O)NCCOCCOCCOCCOCCNC(=O)C[C@@H]2N=C(c3ccc(Cl)cc3)c3c(sc(C)c3C)-n3c(C)nnc32)ccc1NC(=O)[C@H]1N[C@H](CC(C)(C)C)[C@@](C#N)(c2ccc(Cl)cc2F)[C@@H]1c1cccc(Cl)c1F [Compound A1894, (2S,3R,4S,5R)-3-(3-chloro-2-fluorophenyl)-4-(4-chloro-2-fluorophenyl)-N-{4-[(14-{2-[(9S)-7-(4-chlorophenyl)-4,5,13-trimethyl-3-thia-1,8,11,12-tetraazatricyclo[8.3.0.0^2,^6]-trideca-2(6),4,7,10,12-pentaen-9-yl]acetamido}-3,6,9,12-tetraoxatetradecan-1-yl)carbamoyl]-2-methoxyphenyl}-4-cyano-5-(2,2-dimethylpropyl)pyrrolidine-2-carboxamide]	no p53 level increase	–
–	–	A (0 to 25% degradation at 1 μM)	CCN(c1cc(-c2ccc(OCCOCCOCCOCCNC(=O)c3ccc(NC(=O)C4NC(CC(C)(C)C)C(C#N)(c5ccc(Cl)cc5F)C4c4cccc(Cl)c4F)c(OC)c3)cc2)cc(C(=O)NCc2c(C)cc(C)[nH]c2=O)c1C)C1CCOCC1 (stereo not drawn) [Compound A2790, 3-(3-chloro-2-fluorophenyl)-4-(4-chloro-2-fluorophenyl)-4-cyano-N-[4-({1-[4-(3-{[(4,6-dimethyl-2-oxo-1,2-dihydropyridin-3-yl)methyl]carbamoyl}-5-[ethyl(oxan-4-yl)amino]-4-methylphenyl)phenyl]-1,4,7,10-tetraoxadodecan-12-yl}carbamoyl)-2-methoxyphenyl]-5-(2,2-dimethylpropyl)pyrrolidine-2-carboxamide]	–	–
–	–	A (0 to 25% degradation at 1 μM)	CCN(c1cc(-c2ccc(OCCOCCOCCOCCOCCOCCNC(=O)c3ccc(NC(=O)C4NC(CC(C)(C)C)C(C#N)(c5ccc(Cl)cc5F)C4c4cccc(Cl)c4F)c(OC)c3)cc2)cc(C(=O)NCc2c(C)cc(C)[nH]c2=O)c1C)C1CCOCC1 (stereo not drawn) [Compound A2844, 3-(3-chloro-2-fluorophenyl)-4-(4-chloro-2-fluorophenyl)-4-cyano-N-[4-({1-[4-(3-{[(4,6-dimethyl-2-oxo-1,2-dihydropyridin-3-yl)methyl]carbamoyl}-5-[ethyl(oxan-4-yl)amino]-4-methylphenyl)phenyl]-1,4,7,10,13,16-hexaoxaoctadecan-18-yl}carbamoyl)-2-methoxyphenyl]-5-(2,2-dimethylpropyl)pyrrolidine-2-carboxamide]	–	–

Further lines, the compound ahead of its results:

Compound	Degradation activity BRD4 [1]	MDM2 up-regulation [3]	Degradation activity EZH2 [5]	p53 level increase [2]	Degradation activity JNK [4]
COc1cc(C(=O)NCCOCCOCCNC(=O)C[C@@H]2N=C(c3ccc(Cl)cc3)c3c(sc(C)c3C)-n3c(C)nnc32)ccc1NC(=O)[C@@H]1N[C@@H](CC(C)(C)C)[C@](C#N)(c2ccc(Cl)cc2F)[C@H]1c1cccc(Cl)c1F [Compound A1864, (2R,3S,4R,5S)-3-(3-chloro-2-fluorophenyl)-4-(4-chloro-2-fluorophenyl)-N-[4-({2-[2-(2-{2-[(9S)-7-(4-chlorophenyl)-4,5,13-trimethyl-3-thia-1,8,11,12-tetraazatricyclo-[8.3.0.0^2,^6]trideca-2(6),4,7,10,12-pentaen-9-yl]acetamido}ethoxy)ethoxy]ethyl}-carbamoyl)-2-methoxyphenyl]-4-cyano-5-(2,2-dimethylpropyl)pyrrolidine-2-carboxamide]	B (25 to 50% degradation at 1 μM)	up-regulation of MDM2	–	dose dependent p53 level increase	–
COc1cc(C(=O)NCCOCCNC(=O)C[C@@H]2N=C(c3ccc(Cl)cc3)c3c(sc(C)c3C)-n3c(C)nnc32)ccc1NC(=O)[C@H]1N[C@H](CC(C)(C)C)[C@@](C#N)(c2ccc(Cl)cc2F)[C@@H]1c1cccc(Cl)c1F [Compound A1891, (2S,3R,4S,5R)-3-(3-chloro-2-fluorophenyl)-4-(4-chloro-2-fluorophenyl)-N-(4-{[2-(2-{2-[(9S)-7-(4-chlorophenyl)-4,5,13-trimethyl-3-thia-1,8,11,12-tetraazatricyclo[8.3.0.0^2,^6]-trideca-2(6),4,7,10,12-pentaen-9-yl]acetamido}ethoxy)ethyl]carbamoyl}-2-methoxyphenyl)-4-cyano-5-(2,2-dimethylpropyl)pyrrolidine-2-carboxamide]	A (0 to 25% degradation at 1 μM)	no MDM2 up-regulation	–	no p53 level increase	–
COc1cc(C(=O)NCCOCCNC(=O)C[C@@H]2N=C(c3ccc(Cl)cc3)c3c(sc(C)c3C)-n3c(C)nnc32)ccc1NC(=O)[C@@H]1N[C@@H](CC(C)(C)C)[C@](C#N)(c2ccc(Cl)cc2F)[C@H]1c1cccc(Cl)c1F [Compound A1892, (2R,3S,4R,5S)-3-(3-chloro-2-fluorophenyl)-4-(4-chloro-2-fluorophenyl)-N-(4-{[2-(2-{2-[(9S)-7-(4-chlorophenyl)-4,5,13-trimethyl-3-thia-1,8,11,12-tetraazatricyclo[8.3.0.0^2,^6]-trideca-2(6),4,7,10,12-pentaen-9-yl]acetamido}ethoxy)ethyl]carbamoyl}-2-methoxyphenyl)-4-cyano-5-(2,2-dimethylpropyl)pyrrolidine-2-carboxamide]	C (larger than 50% degradation at 1 μM)	up-regulation of MDM2	–	dose dependent p53 level increase	–
COc1cc(C(=O)NCCOCCO[C@H]2CC[C@H](Nc3nccc(-c4cnn(Cc5ccccc5)c4N(C)C)n3)CC2)ccc1NC(=O)C1N[C@@H](CC(C)(C)C)[C@](C#N)(c2ccc(Cl)cc2F)[C@H]1c1cccc(Cl)c1F (stereo partly drawn) [Compound A2720, 3-(3-chloro-2-fluorophenyl)-4-(4-chloro-2-fluorophenyl)-4-cyano-5-(2,2-dimethylpropyl)-N-(2-methoxy-4-{[2-(2-{[(1,4-trans)-4-({4-[1-benzyl-5-(dimethylamino)-1H-pyrazol-4-yl]pyrimidin-2-yl}amino)cyclohexyl]oxy}ethoxy)ethyl]carbamoyl}phenyl)pyrrolidine-2-carboxamide]	–	–	–	–	A (0 to 25% degradation at 1 μM)
COc1ccc(C(=O)NCCOCCOCCO[C@H]2CC[C@H](Nc3nccc(-c4cnn(Cc5ccccc5)c4N(C)C)n3)CC2)cc1NC(=O)C1N[C@@H](CC(C)(C)C)[C@](C#N)(c2ccc(Cl)cc2F)[C@H]1c1cccc(Cl)c1F (stereo partly drawn) [Compound A2766, 3-(3-chloro-2-fluorophenyl)-4-(4-chloro-2-fluorophenyl)-4-cyano-5-(2,2-dimethylpropyl)-N-[2-methoxy-5-({2-[2-(2-{[(1,4-trans)-4-({4-[1-benzyl-5-(dimethylamino)-1H-pyrazol-4-yl]pyrimidin-2-yl}amino)cyclohexyl]oxy}ethoxy)ethoxy]ethyl}carbamoyl)phenyl]pyrrolidine-2-carboxamide]	–	–	–	–	A (0 to 25% degradation at 1 μM)
COc1cc(C(=O)NCCOCCOCCOCCO[C@H]2CC[C@H](Nc3nccc(-c4cnn(Cc5ccccc5)c4N(C)C)n3)CC2)ccc1NC(=O)C1N[C@@H](CC(C)(C)C)[C@](C#N)(c2ccc(Cl)cc2F)[C@H]1c1cccc(Cl)c1F (stereo partly drawn) [Compound A2791, 3-(3-chloro-2-fluorophenyl)-4-(4-chloro-2-fluorophenyl)-4-cyano-5-(2,2-dimethylpropyl)-N-[2-methoxy-4-({1-[(1,4-trans)-4-({4-[1-benzyl-5-(dimethylamino)-1H-pyrazol-4-yl]pyrimidin-2-yl}amino)cyclohexyl]-1,4,7,10-tetraoxadodecan-12-yl}carbamoyl)phenyl]pyrrolidine-2-carboxamide]	–	–	–	–	A (0 to 25% degradation at 1 μM)
COc1ccc(C(=O)NCCOCCOCCOCCOCCO[C@H]2CC[C@H](Nc3nccc(-c4cnn(Cc5ccccc5)c4N(C)C)n3)CC2)cc1NC(=O)C1N[C@@H](CC(C)(C)C)[C@](C#N)(c2ccc(Cl)cc2F)[C@H]1c1cccc(Cl)c1F (stereo partly drawn) [Compound A2792, 3-(3-chloro-2-fluorophenyl)-4-(4-chloro-2-fluorophenyl)-4-cyano-5-(2,2-dimethylpropyl)-N-[2-methoxy-5-({1-[(1,4-trans)-4-({4-[1-benzyl-5-(dimethylamino)-1H-pyrazol-4-yl]pyrimidin-2-yl}amino)cyclohexyl]-1,4,7,10,13-pentaoxapentadecan-15-yl}carbamoyl)phenyl]pyrrolidine-2-carboxamide]	–	–	–	–	A (0 to 25% degradation at 1 μM)
